In brackets after ≈: the same amount, converted by molar mass. Like-named read-outs stand apart in the source and are kept apart here.
Key:
P. aeruginosa ATCC 27853 = test: IHMA QC MIC; assay type: cell-based; settings: Pseudomonas aeruginosa, read-out: MIC
E. coli ATCC 25922 [1] = test: IHMA QC MIC; assay type: cell-based; settings: Escherichia coli, read-out: MIC
E. faecalis ATCC 29212 = test: IHMA QC MIC; assay type: cell-based
Source text: (§1) Supplement jm2c01905_si_004.xlsx, sheet "QC" | column: MIC [µg/mL]

H. influenzae ATCC 49247 = test: IHMA QC MIC; assay type: cell-based; settings: Haemophilus influenzae, read-out: MIC
Source text: as §1

H. influenzae ATCC 49766 = test: IHMA QC MIC; assay type: cell-based
Source text: as §1

S. pneumoniae ATCC 49619 = test: IHMA QC MIC; assay type: cell-based
Source text: as §1

E. coli ATCC 25922 [2] = tested on: E. coli ATCC 25922; parameters: method as in earlier work; settings: QC range for E. coli ATCC 25922, ref CLSI; cited from earlier work

MIC (P. aeruginosa ATCC 27853; ATCC27853, QC strain P. aeruginosa ATCC 27853, test date 2021-11-11): > 32 µg/mL
MIC (P. aeruginosa ATCC 27853; ATCC27853, QC strain P. aeruginosa ATCC 27853, test date 2021-11-26): > 32 µg/mL
MIC (E. coli ATCC 25922 [1]; ATCC25922, QC strain E. coli ATCC 25922, test date 2021-11-11): 8 µg/mL (≈ 22.9 µM)
MIC (E. coli ATCC 25922 [1]; ATCC25922, QC strain E. coli ATCC 25922, test date 2021-11-26): 4 µg/mL (≈ 11.4 µM)
MIC (E. faecalis ATCC 29212; Enterococcus faecalis, ATCC29212, QC strain E. faecalis ATCC 29212, test date 2021-11-11, read-out: MIC): 1 µg/mL (≈ 2.86 µM)
MIC (E. faecalis ATCC 29212; QC strain E. faecalis ATCC 29212, test date 2021-11-26): 1 µg/mL (≈ 2.86 µM)
MIC (H. influenzae ATCC 49247; ATCC49247, QC strain H. influenzae ATCC 49247, test date 2021-11-11): 4 µg/mL (≈ 11.4 µM)
MIC (H. influenzae ATCC 49247; ATCC49247, QC strain H. influenzae ATCC 49247, test date 2021-11-26): 4 µg/mL (≈ 11.4 µM)
MIC (H. influenzae ATCC 49766; Haemophilus influenzae, ATCC49766, QC strain H. influenzae ATCC 49766, test date 2021-11-11, read-out: MIC): 0.12 µg/mL (≈ 0.343 µM)
MIC (H. influenzae ATCC 49766; QC strain H. influenzae ATCC 49766, test date 2021-11-26): 0.12 µg/mL (≈ 0.343 µM)
MIC (S. pneumoniae ATCC 49619; QC strain S. pneumoniae ATCC 49619, test date 2021-11-26): 0.06 µg/mL (≈ 0.172 µM)
MIC (S. pneumoniae ATCC 49619; Streptococcus pneumoniae, ATCC49619, QC strain S. pneumoniae ATCC 49619, test date 2021-11-11, read-out: MIC): 0.06 µg/mL (≈ 0.172 µM)
SMILES: CC1(C)S[C@@H]2[C@H](NC(=O)[C@H](N)c3ccccc3)C(=O)N2[C@H]1C(=O)O [Ampicillin, ampicillin]
MIC, CLSI Range (E. coli ATCC 25922 [2]): 2 to 8 µg/mL
